Assay results taken from patent US20190309272A1, “Genetically Modified Cell Lines Including a TP53 Modification and Methods of Use” (UNIVERSITY OF SOUTH CAROLINA, priority 2018, published 2019).
Counter-ions that a name gives are not always drawn. Like-named read-outs stand apart in the source and are kept apart here.

What was measured:
Type in all cases: cell-based, Human
MCF7 TP53 KO 5.6 pool = experiment: Drug screening, resazurin, TP53 KO 5.6 pool
MCF7 WT Parental pool = experiment: Drug screening, resazurin, MCF7 wild type parental pool
MCF7 TP53 KO 3.4 pool = experiment: Drug screening, resazurin, TP53 KO 3.4 pool
[1] = ten-day drug treatment, 156.25 nM to 10 μM, resazurin fluorescence

Structure (SMILES)	TP53 KO 5.6 pool (AUC) (MCF7 TP53 KO 5.6 pool; [1])	MCF7 WT Parental pool (AUC) (MCF7 WT Parental pool; [1])	TP53 KO 3.4 pool (AUC) (MCF7 TP53 KO 3.4 pool; [1])	TP53 KO 5.6 pool (AUC) (MCF7 TP53 KO 5.6 pool)	MCF7 WT Parental pool (AUC) (MCF7 WT Parental pool)	TP53 KO 3.4 pool (AUC) (MCF7 TP53 KO 3.4 pool)
CC(=O)O[C@H]1C(=O)[C@@]2(C)[C@H]([C@H](OC(=O)c3ccccc3)[C@]3(O)C[C@H](OC(=O)[C@H](O)[C@@H](NC(=O)c4ccccc4)c4ccccc4)C(C)=C1C3(C)C)[C@]1(OC(C)=O)CO[C@@H]1C[C@@H]2O [Paclitaxel]	1.432	1.453	1.453			
CC(C)C[C@H](NC(=O)[C@H](CCc1ccccc1)NC(=O)CN1CCOCC1)C(=O)N[C@@H](Cc1ccccc1)C(=O)N[C@@H](CC(C)C)C(=O)[C@@]1(C)CO1 [Carfilzomib]	0.6678	0.6359	0.6462			
Cn1c(CCCC(=O)O)nc2cc(N(CCCl)CCCl)ccc21 [Bendamustine Hydrochloride]				10.23	9.021	9.503
S=P(N1CC1)(N1CC1)N1CC1 [Thiotepa]				5.535	3.965	5.443
O=NN(CCCl)C(=O)NC1CCCCC1 [Lomustine]	9.491	9.62	9.629			
CC(C)(C#N)c1cc(Cn2cncn2)cc(C(C)(C)C#N)c1 [Anastrozole]	8.828	8.01	8.067			
COc1cc([C@@H]2c3cc4c(cc3[C@@H](O[C@@H]3O[C@@H]5CO[C@@H](C)O[C@H]5[C@H](O)[C@H]3O)[C@H]3COC(=O)[C@H]23)OCO4)cc(OC)c1O [Etoposide]	3.06	2.93	2.818			
CNC(=O)c1ccc(N2C(=S)N(c3ccc(C#N)c(C(F)(F)F)c3)C(=O)C2(C)C)cc1F [Enzalutamide]	8.634	8.931	8.864			
Nc1nc(F)nc2c1ncn2[C@@H]1O[C@H](COP(=O)(O)O)[C@@H](O)[C@@H]1O [FludarabinePhosphate]	7.936	8.551	8.135			
CNC(=O)c1cc(Oc2ccc(NC(=O)Nc3ccc(Cl)c(C(F)(F)F)c3)c(F)c2)ccn1 [Regorafenib]	5.25	3.995	5.541			
NCCCNCCSP(=O)(O)O [Amifostine]	9.73	8.456	9.108			
O=P1(N(CCCl)CCCl)NCCCO1 (stereo not drawn) [Cyclophosphamide]				16.92	16.16	15.2
O=C(CCBr)N1CCN(C(=O)CCBr)CC1 [Pipobroman]	7.66	8.767	8.997			
Clc1ccc(C(c2ccccc2Cl)C(Cl)Cl)cc1 (stereo not drawn) [Mitotane]	10.17	5.932	11.01			
Cn1nnc2c(C(N)=O)ncn2c1=O [Temozolomide]	10.06	9.187	9.565			
COc1cc([C@@H]2c3cc4c(cc3[C@@H](O[C@@H]3O[C@@H]5CO[C@@H](c6cccs6)O[C@H]5[C@H](O)[C@H]3O)[C@H]3COC(=O)[C@H]23)OCO4)cc(OC)c1O [Teniposide]	1.041	1.342	0.9417			
C=CC(=O)N1CCC[C@@H](n2nc(-c3ccc(Oc4ccccc4)cc3)c3c(N)ncnc32)C1 [Ibrutinib]	5.711	6.35	5.166			
Nc1nc(Cl)nc2c1ncn2[C@H]1C[C@H](O)[C@@H](CO)O1 [Cladribine]	3.956	5.569	3.767			
Nc1nc(Cl)nc2c1ncn2[C@@H]1O[C@H](CO)[C@@H](O)[C@@H]1F [Clofarabine]	3.74	5.232	3.085			

Structure (SMILES)	TP53 KO 5.6 pool (AUC) (MCF7 TP53 KO 5.6 pool; [1])	MCF7 WT Parental pool (AUC) (MCF7 WT Parental pool; [1])	TP53 KO 3.4 pool (AUC) (MCF7 TP53 KO 3.4 pool; [1])	TP53 KO 5.6 pool (AUC) (MCF7 TP53 KO 5.6 pool)	MCF7 WT Parental pool (AUC) (MCF7 WT Parental pool)	TP53 KO 3.4 pool (AUC) (MCF7 TP53 KO 3.4 pool)
CC(C)C[C@H](NC(=O)[C@H](Cc1ccccc1)NC(=O)c1cnccn1)B(O)O [Bortezomib]	0.7486	0.6974	0.673			
O=c1[nH]c(=O)n([C@H]2C[C@H](O)[C@@H](CO)O2)cc1F [Floxuridine]	1.997	2.391	1.85			
CNC(=O)c1ccccc1Sc1ccc2c(/C=C/c3ccccn3)n[nH]c2c1 [Axitinib]	3.786	2.581	3.743			
O=C(CCCCCCC(=O)Nc1ccccc1)NO [Vorinostat]	2.114	2.073	2.202			
Cc1ccc(Nc2nccc(N(C)c3ccc4c(C)n(C)nc4c3)n2)cc1S(N)(=O)=O [Pazopanib Hydrochloride]	6.349	6.767	6.259			
N.N.[Cl][Pt][Cl] [Cisplatin]	7.44	7.335	6.27			
NCC(=O)CCC(=O)O [Aminolevulinic Acid]	8.787	8.749	9.101			
CO[C@H]1C(=O)[C@]2(C)[C@@H](OC)C[C@H]3OC[C@@]3(OC(C)=O)[C@H]2[C@H](OC(=O)c2ccccc2)[C@]2(O)C[C@H](OC(=O)[C@H](O)[C@@H](NC(=O)OC(C)(C)C)c3ccccc3)C(C)=C1C2(C)C [Cabazitaxel]	1.713	1.406	1.658			
CCCCC(=O)OCC(=O)[C@]1(O)Cc2c(O)c3c(c(O)c2[C@@H](O[C@H]2C[C@H](NC(=O)C(F)(F)F)[C@H](O)[C@H](C)O2)C1)C(=O)c1c(OC)cccc1C3=O [Valrubicin]	1.05	1.194	1.25			
CN(C)C/C=C/C(=O)Nc1cc2c(Nc3ccc(F)c(Cl)c3)ncnc2cc1O[C@H]1CCOC1 [Afatanib]	2.139	2.734	2.48			
CC(C)C[C@H](NC(=O)CNC(=O)c1cc(Cl)ccc1Cl)B(O)O [Ixazomib]	0.8766	0.719	0.7086			
CC1=C(/C=C/C(C)=C/C=C/C(C)=C/C(=O)O)C(C)(C)CCC1 [Tretinoin]	7.997	7.394	7.809			
CC[C@]1(O)C[C@H]2CN(CCc3c([nH]c4ccccc34)[C@@](C(=O)OC)(c3cc4c(cc3OC)N(C=O)[C@H]3[C@@](O)(C(=O)OC)[C@H](OC(C)=O)[C@]5(CC)C=CCN6CC[C@]43[C@@H]65)C2)C1 [Vincristine Sulfate]	1.54	1.668	1.776			
CN(N=O)C(=O)N[C@@H](C=O)[C@@H](O)[C@H](O)[C@H](O)CO [Streptozocin]	9.912	9.145	10.58			
Nc1cccc2c1C(=O)N(C1CCC(=O)NC1=O)C2=O (stereo not drawn) [Pomalidomide]	10.13	10.08	9.902			
Cc1c(C(=O)Nc2ccc(N3C[C@@H](C)O[C@@H](C)C3)nc2)cccc1-c1ccc(OC(F)(F)F)cc1 [Erismodgib]	7.491	7.435	6.922			
CS(=O)(=O)c1ccc(C(=O)Nc2ccc(Cl)c(-c3ccccn3)c2)c(Cl)c1 [Vismodegib]	8.363	8.801	8.017			
CC(=O)O[C@]1(C(C)=O)CC[C@H]2[C@@H]3C=C(C)C4=CC(=O)CC[C@]4(C)[C@H]3CC[C@@]21C [Megestrol Acetate]	9.555	9.824	9.221			
C[C@]12CC[C@H](O)CC1=CC[C@@H]1[C@@H]2CC[C@]2(C)C(c3cccnc3)=CC[C@@H]12 [Abiraterone]	9.254	8.378	8.785			
